# “Also recorded” adds a separate entry of the source.
# Assays:
# [1] = derivable from literature; cited from earlier work
# [2] = system: porcine pancreatic lipase, PPL (crude extract); assay: OPTS assay: enzymatic hydrolysis of OPTS by PPL; format: biochemical
# Procedure: An aqueous solution of commercially purchased porcine pancreatic lipase, PPL, was prepared (Sigma-Aldrich, US; 100-500 Units/mg protein). According to the manufacturer, this powder mainly contains triacylglycerol lipase, but since it is a homogenised powder from freeze-dried porcine pancreas (crude extract), it is likely to further contain other carboxylesterases and lipases. These enzymes hydrolyse fatty acid esters and this extract was therefore selected for functional tests.
# To record the reaction kinetics of the substrate OPTS with PPL, an aqueous 10 mg/mL PPL solution was prepared by adding 10 mg PPL to 1 mL H2O. The suspension was vortexed for 2 min and centrifuged at 14,000×g for 5 min before the supernatant was removed.
# A reaction mixture of 75 μL AMT buffer (pH=7), 165 μL H2O and 30 μL of an aqueous 10 mg*mL-1 PPL solution was started with the addition of 30 μL of a 250 μM OPTS solution. The increase in fluorescence was recorded over 30 min with 15 s measuring intervals (n=2). As control (blank) served a preparation without PPL (only with H2O). […] The calculated reaction rate is 2.89±0.08*10-5 units (μmol*min-1). […]
# Further inhibition of the non-ionic detergent polysorbate 20 (Tween 20) was tested. […] No inhibition was observed until 50 μg/ml at pH 7.0, but higher concentrations reduced the fluorescence signal (FIG. 5B). […]
# [3] = system: contaminating host cell proteins with hydrolytic (lipase) activity in antibody solutions; assay: 4-MUD assay on antibody preparations (drug substance samples); format: biochemical, CHO K1 or DG44 cells; details: all 9 antibody samples; for effect of inhibitor on hydrolytic activity in the 9 antibody samples, 4-MUD assay: orlistat 10 μM, PMSF 1 mM, EDTA 10 mM
# Description: In order to be able to determine the enzymatic activity, a substrate, 1-octanoyloxy-pyrene-3,6,8-trisulfonic acid trisodium salt (OPTS), was chosen. Its hydrolytic product, 1-hydroxypyrene-3,6,8-trisulfonic acid trisodium salt (HPTS), can be detected by fluorescence spectroscopy. The change in the fluorescence signal over time is directly related to the change in the concentration of free fluorophore. The conversion was made possible by setting up a calibration curve with a subsequent linear fit (R^2≥0.99). The experiments of the kinetics measurements with the OPTS/4-MUD substrates assay were performed in duplicates. The reaction mixture without the protein of interest, which served as the respective control, was subtracted from the protein-containing batch. The buffer used for OPTS measurements (hydrophilic substrate) contained 0.3 M HOAc, 0.3 M MES, 0.6 M TRIS and 0.6 M NaCl (4×AMT buffer; acetate, MES, TRIS). For 4-MUD substrate measurements (lipophilic substrate) 0.04 M CHAPS was added in addition. The buffer (AMT) was prepared in four-fold concentration (4×AMT) and was added at 25% (v/v) to the reaction mix. All measurements were carried out in multiwell plates with a preparation volume of 300 μL (75 μL 4×AMT buffer, 30 μL substrate, 75 μL enzyme-containing solution, x μL additive, 300 μL ad. H2O) Unless otherwise stated, all fluorescence spectroscopic measurements were performed using 96-well, clear-bottom, non-binding plates (Greiner, Austria) on a SpectraMax M3 PlateReader (Molecular Device, USA) and recorded using SoftMax Pro 7.0.3 software (Molecular Device, USA). The OPTS assay measurements were typically taken at 25° C., λex=403 nm and λem=512 nm and the 4-MUD assay measurements were taken at 25° C., λex=330 nm and λem=450 nm. For evaluation, the detected fluorescence signal for a reaction mix without protein of interest (control) was subtracted from the reaction mix with protein of interest (e.g. DS). Hydrolysis of the substrate has been measured by detecting the fluorescence intensity of the released chromophore (4-MU or HPTS) immediately following mixing in real-time for a few minutes up to 5 hours depending on fluorescence intensity. The changes in the fluorescence signal over time were subsequently converted to hydrolytic activity using previously established calibration curves with a linear fit (R^2≥0.99).
# The target concentration of OPTS was 25 μM and the target concentration of 4-MUD was 30 μM. […]
# (§1) To generate pH profiles of the protein solutions, kinetic measurements were carried out as described above at the indicated pH value. The added AMT buffer was adjusted to the pH indicated in a range of pH 4-8 (0.5 steps) and the kinetics were recorded for each pH value.
# [4] = system: purified commercially available lipase (lysosomal lipase); assay: 4-MUD assay on a purified commercially available lipase; format: biochemical; details: 10 μM orlistat, 1 mM PMSF, 10 mM EDTA; pH 5.5
# Procedure: The target concentration of OPTS was 25 μM and the target concentration of 4-MUD was 30 μM. For preparing a master mix, 4×AMT buffer was mixed with the appropriate volume of H2O in a Falcon tube. The dialysed antibody (Ab) preparation samples (drug substance) or control solutions (75 μl) were transferred to 96 well plates. Optional inhibitors (10 μM orlistat, 1 mM PMSF and 10 mM EDTA) were added to the master mix comprising 4×AMT buffer and water and substrate (3 μl/sample 3 mM 4-MUD in DMSO or […] 250 μM OPTS in H2O, aliquoted and frozen). The 4-MUD substrate was stored at a concentrated stock solution comprising 3 mM 4-methylumbelliferyl decanoate (4-MUD; FM25973, Carbosynth) in DMSO resulting in a 100× stock solution for use comprising […] in DMSO. The 250 μM OPTS stock solution was prepared in H2O, aliquoted and frozen until use. […] The reaction was then started by adding the master mix (reaction solution) to the protein solution or control solution, respectively. The measurement was started immediately. The measuring time was 30 min and the measuring intervals 15 s. Stock solutions of the inhibitors were used as follows: 300 μM orlistat (Sigma-Aldrich, USA) in DMSO, 100 mM PMSF (Roth, Germany) in isopropanol and 500 mM EDTA (Sigma-Aldrich, USA) in H2O.
# as §1
# Further, a purified commercially available lipase with unknown substrate specificity was analysed using the 4-MUD and OPTS assay. First, hydrolysis of both soluble (OPTS) and hydrophobic (4-MUD) carboxyl esters, as well as the influence of orlistat, PMSF and EDTA on the hydrolytic activity of the lipase were investigated.
# Furthermore, the lipase was tested for its pH dependence in the OPTS and 4-MUD substrate assays. For this purpose, the hydrolytic activity was examined at pH=4-8.
# [5] = system: contaminating host cell proteins with hydrolase (carboxylesterase) activity in antibody solutions; assay: OPTS assay on antibody preparations (drug substance samples); format: biochemical, CHO K1 or DG44 cells; details: orlistat 10 μM, PMSF 1 mM, EDTA 10 mM; all 9 antibody samples
# Description: In order to be able to determine the enzymatic activity, a substrate, 1-octanoyloxy-pyrene-3,6,8-trisulfonic acid trisodium salt (OPTS), was chosen. Its hydrolytic product, 1-hydroxypyrene-3,6,8-trisulfonic acid trisodium salt (HPTS), can be detected by fluorescence spectroscopy. The change in the fluorescence signal over time is directly related to the change in the concentration of free fluorophore. The conversion was made possible by setting up a calibration curve with a subsequent linear fit (R^2≥0.99). The experiments of the kinetics measurements with the OPTS/4-MUD substrates assay were performed in duplicates. The reaction mixture without the protein of interest, which served as the respective control, was subtracted from the protein-containing batch. The buffer used for OPTS measurements (hydrophilic substrate) contained 0.3 M HOAc, 0.3 M MES, 0.6 M TRIS and 0.6 M NaCl (4×AMT buffer; acetate, MES, TRIS). For 4-MUD substrate measurements (lipophilic substrate) 0.04 M CHAPS was added in addition. […] All measurements were carried out in multiwell plates with a preparation volume of 300 μL (75 μL 4×AMT buffer, 30 μL substrate, 75 μL enzyme-containing solution, x μL additive, 300 μL ad. H2O) Unless otherwise stated, all fluorescence spectroscopic measurements were performed using 96-well, clear-bottom, non-binding plates (Greiner, Austria) on a SpectraMax M3 PlateReader (Molecular Device, USA) and recorded using SoftMax Pro 7.0.3 software (Molecular Device, USA). […] For evaluation, the detected fluorescence signal for a reaction mix without protein of interest (control) was subtracted from the reaction mix with protein of interest (e.g. DS). Hydrolysis of the substrate has been measured by detecting the fluorescence intensity of the released chromophore (4-MU or HPTS) immediately following mixing in real-time for a few minutes up to 5 hours depending on fluorescence intensity. The changes in the fluorescence signal over time were subsequently converted to hydrolytic activity using previously established calibration curves with a linear fit (R^2≥0.99). […]
SMILES,CMC [1],"effect of inhibitor on hydrolytic activity in the 9 antibody samples, 4-MUD assay [3]","influence of inhibitors on hydrolytic activity of the lipase, 4-MUD substrate [4]","effect of inhibitor on hydrolytic activity in the 9 antibody samples, OPTS assay [5]",other results
"C[C@H](CCC(=O)NCCC[N+](C)(C)CCCS(=O)(=O)[O-])[C@H]1CC[C@H]2[C@@H]3[C@H](O)C[C@@H]4C[C@H](O)CC[C@]4(C)[C@H]3C[C@H](O)[C@]12C [CHAPS, 3-[(3-cholamidopropyl)dimethylammonio]-1-propanesulfonate]",about 6 mM,,,,"activity in the presence of 10 mM CHAPS ([2]; 1 mg*mL-1 PPL, 25 μM OPTS, AMT pH 7, 10 mM CHAPS): 6.16*10^−7 units"
"C[C@H](CCC(=O)NCCC[N+](C)(C)CC(O)CS(=O)(=O)[O-])[C@H]1CC[C@H]2[C@@H]3[C@H](O)C[C@@H]4C[C@H](O)CC[C@]4(C)[C@H]3C[C@H](O)[C@]12C (stereo partly drawn) [CHAPSO, 3-([3-Cholamidopropyl)dimethylammonio]-2-hydroxy-1-propanesulfonate]",about 8 mM,,,,
O=C(O)CN(CCN(CC(=O)O)CC(=O)O)CC(=O)O [EDTA],,hardly any inhibition; also recorded: no inhibition,only minor effects,"Neither orlistat, nor PMSF or EDTA significantly reduced; also recorded: no inhibition",
O=S(=O)(F)Cc1ccccc1 [PMSF],,sight inhibition,only minor effects,"Neither orlistat, nor PMSF or EDTA significantly reduced",
"CCCCCCCCCCCC(=O)OCCOCCOCCOCCOCCOCCOCCOCCOCCOCCOCCOCCOCCOCCOCCOCCOCCOCCOCCOCCOCC(OCCOCCOCCOCCOCCOCCOCCOCCOCCOCCOCCOCCOCCOCCOCCOCCOCCOCCOCCOCCO)C1OCC(OCCOCCOCCOCCOCCOCCOCCOCCOCCOCCOCCOCCOCCOCCOCCOCCOCCOCCOCCOCCO)C1OCCOCCOCCOCCOCCOCCOCCOCCOCCOCCOCCOCCOCCOCCOCCOCCOCCOCCOCCOCCO (stereo not drawn) [Polysorbate 20, polyoxyethylene (20) sorbitan monolaurate]",,,,,"concentration until which no inhibition was observed ([2]; PPL, pH 7.0, target concentrations 200 μg/mL to 0.098 μg/mL tested): ≤ 50 µg/mL"
"CCCCCCCCCCCC[N+](C)(C)CCCS(=O)(=O)[O-] [Zwittergent 3-12, n-Dodecyl-N,N-dimethyl-3-ammonio-1-propanesulfonate]",2 to 4 mM,,,,
CCCCCCCCCCC[C@@H](C[C@@H]1OC(=O)[C@H]1CCCCCC)OC(=O)[C@H](CC(C)C)NC=O [orlistat],,pronounced inhibition; also recorded: strong inhibition,almost completely inhibited,"Neither orlistat, nor PMSF or EDTA significantly reduced","residual activities with orlistat ([3]; 10 μM orlistat, % of hydrolysis activity without inhibitor): 18-21%"

# From patent US20250207175A1, “METHOD FOR DETECTING CONTAMINATING CARBOXYLESTERASE ACTIVITY” (Boehringer Ingelheim International GmbH, priority 2022, published 2025)
